Assays:
BRAF = target: T1, BRAF (Homo sapiens, UniProt P15056); assay: LanthaScreen kinase assay, BRAF; assay type: biochemical; conditions: ATP 1 μM
T1 construct: purchased Invitrogen
Experimental: (§1) The inhibitory activities of compounds against BRAF or BRAF V600E protein were measured using Invitrogne's LanthaScreen™ kinase assay which is based on fluorescein-labeled MAP2K1 as a substrate. The assay procedure is described as follows.
(§2) The scale utilized in Table 3 is as follows: ++++ less than 50 nM; +++ between 50 and 100 nM; ++ between 100 nM and 1 μM; and + greater than 1 μM.

[1] = tested on: A375 (human melanoma cell, BRAF V600E Mutant); assay: Inhibition of cancer cell growth, MTT or MTS assay, A375; assay type: cell-based; conditions: A-375, 72 h, highest concentration 10 μM (Table 5)
Experimental: A375 (human melanoma cell, BRAF V600E Mutant), CHL-1 (human melanoma cell, BRAF wild type), SK-MEL-28 (human melanoma cell, BRAF V600E Mutant) and SK-MEL-31(human melanoma cell, Braf WT Mutant) were purchased from ATCC (American Type Culture Collection, Manassas, Va.). All cell lines were maintained in RPMI 1640 (Hyclone) or DMEM (Hyclone) supplemented with 10% fetal bovine serum (FBS, Hyclone), glutamine (2 mM, Hyclone), and antibiotics (penicillin 100 U/mL and streptomycin 50 μg/mL) at 37° C. in a humidified atmosphere of 5% CO2 in air.
To test IC50 of inhibition of individual compounds against each cell line, A375, SK-MEL-28and SK-MEL-31 cells were first plated in 96-well plates at densities of 3000 cells/well, and CHL-1 2500 cells/well. Cells were then incubated to allow cells to adhere and grow for 24 h. Cells were then treated with a series of concentrations of compounds for 72 h. The highest concentration of compounds was 10 μM for A375 and SK-MEL-28 cells and 100 μM for CHL-1 and SK-MEL-31 cells. Cells were then removed from the incubator and medium was removed by inverting and tapping the plates. 100 μL of MTT (0.5 mg/ml) or 10 μL or MTS was added to each well followed by an incubated at 37° C. for 4 h. Then MTT was removed and 200 μL of DMSO was added to each well, followed by reading the ODs at 570 nm after a 5 second shaking cycle in a 96-well spectrophotometer. For MTS method, MTS was not removed, and the incubated solutions were directly put in a 96-well spectrophotometer for the reading of the ODs at 492 nm.
IC50 was calculated by plotting the concentration of compound vs the percentage of inhibition in treated wells using GraphPad Prism 5. […] The scale utilized in Table 5 is as follows: +++ less than 500 nM; ++ between 500 nM and 1 μM; and + greater than 1 μM.

BRAF V600E [2] = target: T2, BRAF V600E (Homo sapiens, UniProt P15056, V600E); assay: LanthaScreen kinase assay, BRAF V600E; assay type: biochemical; conditions: ATP 10 μM
T2 construct: purchased Invitrogen
T2 sequence (P15056 whole entry V600E): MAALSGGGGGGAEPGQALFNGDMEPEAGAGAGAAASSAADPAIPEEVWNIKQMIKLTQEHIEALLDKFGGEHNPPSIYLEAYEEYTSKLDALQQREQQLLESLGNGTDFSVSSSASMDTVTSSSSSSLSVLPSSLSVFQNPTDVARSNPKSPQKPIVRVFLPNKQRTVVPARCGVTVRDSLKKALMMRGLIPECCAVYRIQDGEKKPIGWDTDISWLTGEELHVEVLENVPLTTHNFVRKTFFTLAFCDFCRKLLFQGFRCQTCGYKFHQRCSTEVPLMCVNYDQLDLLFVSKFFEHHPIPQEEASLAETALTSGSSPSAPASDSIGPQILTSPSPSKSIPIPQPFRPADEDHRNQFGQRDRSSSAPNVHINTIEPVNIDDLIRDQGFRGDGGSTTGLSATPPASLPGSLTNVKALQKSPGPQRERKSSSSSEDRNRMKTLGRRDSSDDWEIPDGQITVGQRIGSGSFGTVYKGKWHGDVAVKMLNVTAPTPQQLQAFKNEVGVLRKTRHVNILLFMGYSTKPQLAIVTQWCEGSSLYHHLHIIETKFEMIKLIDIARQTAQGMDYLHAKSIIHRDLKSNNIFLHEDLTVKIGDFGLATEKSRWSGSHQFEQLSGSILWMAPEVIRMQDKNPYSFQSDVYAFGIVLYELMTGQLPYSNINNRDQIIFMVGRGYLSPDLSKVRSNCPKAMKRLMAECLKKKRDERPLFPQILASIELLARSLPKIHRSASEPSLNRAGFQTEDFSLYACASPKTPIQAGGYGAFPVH
Experimental: as §1, §2

BRAF V600E [3] = target: T2, BRAF V600E; assay: Z′-LYTE kinase assay, BRAF V600E (Invitrogen); assay type: biochemical; conditions: Z′-LYTE method
Experimental: Inhibitory activities of compounds against BRAF or BRAF V600E were measured by Invitrogen using Z′-LYTE® Method as briefly described in the following.
4× Test compounds are dissolved in 1% DMSO. […] ATP solutions are diluted to a 4×ATP working concentration in Kinase Buffer (50 mM HEPES pH 7.5, 0.01% BRIJ-35, 10 mM MgCl2, 1 mM EGTA).
Reaction starts by 30-second shaking of mixture consisting of 2.5 μL4× test compound, […] and 2.5 μL 4×ATP Solution on Bar-coded Corning, low volume NBS, black 384-well plate (Corning Cat. #3676). Then the mixture is incubated for 60-minute at room temperature for the kinase reaction, followed by addition of 5 μL of a 1:1024 dilution of development reagent A and 30-second plate shake. The mixture is then incubated for another 60-minute at room temperature for development reaction. Finally fluorescence is read by plate reader.

A375 cells = assay: Inhibition of cancer cell growth, MTT assay, A375; assay type: cell-based; conditions: Homo sapiens, A-375, 72 h (Table 4)
Experimental: (§3) Inhibition of cell growth by compounds was measured using MTT assay (Mosmann, T., Journal of Immunological Methods, 1983, 65, 55-63). Tumor cell lines were purchased from ATCC (American Type Culture Collection, Manassas, Va.). All cell lines were maintained in RPMI 1640 (Hyclone) supplemented with 10% fetal bovine serum (FBS, Hyclone), glutamine (2 mM, Hyclone), and antibiotics (penicillin 100 U/mL and streptomycin 50 μg/mL) at 37° C. in a humidified atmosphere of 5% CO2 in air. Taxol (as a positive control, Sigma) and compounds were dissolved in DMSO (Sigma), and the final concentration of DMSO in the medium was 1%. Tumor cells were plated in 96-well plates at densities of about 4000 cells/well of a 96-well plate and allowed to adhere/grow for 24 h. They were then treated with various concentrations of drug for 72 h. 3-(4,5-Dimethylthiazol-2-yl)-2,5-diphenyltetrazolium bromide (MTT, Sigma) was used to determine the number of viable cells at the time of compound addition and the number of cells remaining after 72 h compound exposure. The number of cells remaining after 72 h was compared to the number of viable cells at the time of compound addition by measuring the absorbance at 570 nm, allowing for the calculation of growth inhibition.
(§4) All concentrations of compounds were tested in triplicate and controls were averaged over 4 wells. IC50 was calculated by plotting the concentration of compound vs the percentage of inhibition in treated wells using GraphPad Prism 5.
(§5) The scale utilized in Table 4 is as follows: +++ less than 500 nM; ++ between 500 nM and 1 μM; and + greater than 1 μM.

A549 cells = assay: Inhibition of cancer cell growth, MTT assay, A549; assay type: cell-based; conditions: Homo sapiens, 72 h
Experimental: as §3, §4, §5

T1 sequence (P15056 whole entry): as the sequence (P15056 whole entry V600E) above, with E600V counted along it

Row | IC50 (BRAF) | IC50 [1] | IC50 (BRAF V600E [2]) | inhibition at 1 µM (BRAF V600E [3]) | IC50 (A375 cells) | IC50 (A549 cells) | SMILES
1 | < 50 nM | < 500 nM | < 50 nM | – | – | – | CCCS(=O)(=O)Nc1cc(F)c(F)c(C(=O)c2ccc3ncc(-c4ccncc4)nc3c2)c1F [Compound C33, N-(2,4,5-trifluoro-3-(3-(pyridin-4-yl)quinoxaline-6-carbonyl)phenyl)propane-1-sulfonamide]
2 | – | – | – | < 70% | > 1000 nM | > 1000 nM | CCCS(=O)(=O)Nc1cc(F)cc(C(=O)c2ccc3nccnc3c2)c1 [Compound C16, N-(3-fluoro-5-(quinoxaline-6-carbonyl)phenyl)propane-1-sulfonamide]
3 | 100 to 1000 nM | < 500 nM | 100 to 1000 nM | – | – | – | O=C(c1ccc2ncc(N3CCOCC3)nc2c1)c1c(F)c(F)cc(NS(=O)(=O)C2CC2)c1F [Compound C29, N-(2,4,5-trifluoro-3-(3-morpholinoquinoxaline-6-carbonyl)phenyl)cyclopropanesulfonamide]
4 | 50 to 100 nM | < 500 nM | < 50 nM | – | – | – | CCCS(=O)(=O)Nc1cc(F)c(F)c(C(=O)c2ccc3ncc(-n4cncc4C)nc3c2)c1F [Compound C40, N-(2,4,5-trifluoro-3-(3-(5-methyl-1H-imidazol-1-yl)quinoxaline-6-carbonyl)phenyl)propane-1-sulfonamide]
5 | < 50 nM | < 500 nM | < 50 nM | – | – | – | CCCS(=O)(=O)Nc1cc(F)c(F)c(C(=O)c2ccc3ncc(N4CCNCC4)nc3c2)c1F [Compound C24, N-(2,4,5-trifluoro-3-(3-(piperazin-1-yl)quinoxaline-6-carbonyl)phenyl)propane-1-sulfonamide]
6 | – | – | – | < 70% | > 1000 nM | > 1000 nM | CCCS(=O)(=O)Nc1ccc(F)c(C(=O)c2ccc3nccnc3c2)c1 [Compound C15, N-(4-fluoro-3-(quinoxaline-6-carbonyl)phenyl)propane-1-sulfonamide]
7 | 100 to 1000 nM | > 1000 nM | 100 to 1000 nM | – | – | – | CCCS(=O)(=O)Nc1cc(F)c(F)c(C(=O)c2ccc3ncc(C)nc3c2)c1F [Compound C19, N-(2,4,5-trifluoro-3-(3-methylquinoxaline-6-carbonyl)phenyl)propane-1-sulfonamide]
8 | < 50 nM | < 500 nM | < 50 nM | – | – | – | CCCS(=O)(=O)Nc1cc(F)c(F)c(C(=O)c2ccc3ncc(-c4cccnc4)nc3c2)c1F [Compound C30, N-(2,4,5-trifluoro-3-(3-(pyridin-3-yl)quinoxaline-6-carbonyl)phenyl)propane-1-sulfonamide]
9 | 100 to 1000 nM | < 500 nM | 100 to 1000 nM | – | – | – | CCCS(=O)(=O)Nc1ccc(F)c(C(=O)c2ccc3ncc(N4CCOCC4)nc3c2)c1F [Compound C38, N-(2,4-difluoro-3-(3-morpholinoquinoxaline-6-carbonyl)phenyl)propane-1-sulfonamide]
10 | 100 to 1000 nM | 500 to 1000 nM | 50 to 100 nM | – | – | – | CCCS(=O)(=O)Nc1cc(F)c(F)c(C(=O)c2ccc3ncc(-c4ccc(F)cc4)nc3c2)c1F [Compound C28, N-(2,4,5-trifluoro-3-(3-(4-fluorophenyl)quinoxaline-6-carbonyl)phenyl)propane-1-sulfonamide]
11 | < 50 nM | < 500 nM | < 50 nM | – | – | – | CCCS(=O)(=O)Nc1cc(F)c(F)c(C(=O)c2ccc3ncc(-c4ccc(C)nc4)nc3c2)c1F [Compound C34, N-(2,4,5-trifluoro-3-(3-(6-methylpyridin-3-yl)quinoxaline-6-carbonyl)phenyl)propane-1-sulfonamide]
12 | 50 to 100 nM | < 500 nM | < 50 nM | – | – | – | CCCS(=O)(=O)Nc1cc(F)c(F)c(C(=O)c2ccc3ncc(-n4ccnc4C)nc3c2)c1F [Compound C20, N-(2,4,5-trifluoro-3-(3-(2-methyl-1H-imidazol-1-yl)quinoxaline-6-carbonyl)phenyl)propane-1-sulfonamide]
13 | < 50 nM | < 500 nM | < 50 nM | – | – | – | CCCS(=O)(=O)Nc1cc(F)c(F)c(C(=O)c2ccc3ncc(-n4cnc(C)c4)nc3c2)c1F [Compound C21, N-(2,4,5-trifluoro-3-(3-(4-methyl-1H-imidazol-1-yl)quinoxaline-6-carbonyl)phenyl)propane-1-sulfonamide]
14 | > 1000 nM | – | > 1000 nM | – | – | – | CCCS(=O)(=O)Nc1ccc(F)c(C(=O)c2ccc3ncc(N4CCOCC4)nc3c2)c1Cl [Compound C41, N-(2-chloro-4-fluoro-3-(3-morpholinoquinoxaline-6-carbonyl)phenyl)propane-1-sulfonamide]
15 | 100 to 1000 nM | 500 to 1000 nM | < 50 nM | – | – | – | CCCS(=O)(=O)Nc1cc(F)c(F)c(C(=O)c2ccc3ncc(-c4ccccc4)nc3c2)c1F [Compound C26, N-(2,4,5-trifluoro-3-(3-phenylquinoxaline-6-carbonyl)phenyl)propane-1-sulfonamide]
16 | < 50 nM | < 500 nM | < 50 nM | – | – | – | CCCS(=O)(=O)Nc1cc(F)c(F)c(C(=O)c2ccc3ncc(-c4cn[nH]c4)nc3c2)c1F [Compound C27, N-(3-(3-(1H-pyrazol-4-yl)quinoxaline-6-carbonyl)-2,4,5-trifluorophenyl)propane-1-sulfonamide]
17 | 50 to 100 nM | < 500 nM | 50 to 100 nM | – | – | – | CCCS(=O)(=O)Nc1cc(F)c(F)c(C(=O)c2ccc3ncc(OCCOC)nc3c2)c1F [Compound C22, N-(2,4,5-trifluoro-3-(3-(2-methoxyethoxy)quinoxaline-6-carbonyl)phenyl)propane-1-sulfonamide]
18 | < 50 nM | < 500 nM | < 50 nM | – | – | – | CCCS(=O)(=O)Nc1cc(F)c(F)c(C(=O)c2ccc3ncc(-n4ccnc4)nc3c2)c1F [Compound C23, N-(3-(3-(1H-imidazol-1-yl)quinoxaline-6-carbonyl)-2,4,5-trifluorophenyl)propane-1-sulfonamide]
19 | 50 to 100 nM | 500 to 1000 nM | < 50 nM | – | – | – | CCCS(=O)(=O)Nc1cc(F)c(F)c(C(=O)c2ccc3ncc(C#N)nc3c2)c1F [Compound C36, N-(3-(3-cyanoquinoxaline-6-carbonyl)-2,4,5-trifluorophenyl)propane-1-sulfonamide]
20 | 50 to 100 nM | > 1000 nM | < 50 nM | – | – | – | CCCS(=O)(=O)Nc1cc(F)c(F)c(C(=O)c2ccc3ncc(F)nc3c2)c1F [Compound C35, N-(2,4,5-trifluoro-3-(3-fluoroquinoxaline-6-carbonyl)phenyl)propane-1-sulfonamide]
